Measurements reported in patent publication US10597388B2, “Pyridazinone herbicides” (FMC CORPORATION, priority 2014, dated 2020).

Experiments:
Test in all cases: Test C greenhouse herbicide test, pre- and postemergence
Type in all cases: in vivo
[1] = system: barnyardgrass (Echinochloa crus-galli)
Method in brief: (§1)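 Greenhouse pots; pre-em on seeded loam:sand blend, post-em on 2–18 cm plants (1–4 leaf) in sphagnum peat/vermiculite medium. Formulation: non-phytotoxic solvent + surfactant. Read-out: visual % control (0–100) vs controls at 13–15 d.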

[2] = system: blackgrass (Alopecurus myosuroides)
Method in brief: as §1

corn (Zea mays) = system: corn (Zea mays)
Method in brief: as §1

[3] = system: crabgrass, large (large crabgrass, Digitaria sanguinalis)
Method in brief: as §1

[4] = system: foxtail, giant (giant foxtail, Setaria faberii)
Method in brief: as §1

[5] = system: galium (catchweed bedstraw, Galium aparine)
Method in brief: as §1

[6] = system: lambsquarters (Chenopodium album)
Method in brief: as §1

[7] = system: nutsedge, yellow (yellow nutsedge, Cyperus esculentus)
Method in brief: as §1

[8] = system: oilseed rape (Brassica napus)
Method in brief: as §1

[9] = system: pigweed (Amaranthus retroflexus)
Method in brief: as §1

[10] = system: ragweed (common ragweed, Ambrosia elatior)
Method in brief: as §1

[11] = system: ryegrass, Italian (Italian ryegrass, Lolium multiflorum)
Method in brief: as §1

soybean (Glycine max) = system: soybean (Glycine max)
Method in brief: as §1

[12] = system: velvetleaf (Abutilon theophrasti)
Method in brief: as §1

[13] = system: wheat (winter wheat, Triticum aestivum)
Method in brief: as §1

[14] = Postemergence, 31 g ai/ha, scale 0 to 100 (0 no effect, 100 complete control)
[15] = Postemergence, 125 g ai/ha, scale 0 to 100, 0 is no effect, 100 is complete control
[16] = Postemergence, 250 g ai/ha, scale 0 to 100, 0 no effect, 100 complete control, 13 to 15 d
[17] = Preemergence, 31 g ai/ha, scale 0 to 100, 0 is no effect, 100 is complete control
[18] = Preemergence, 62 g ai/ha, scale 0 to 100, 0 is no effect, 100 is complete control
[19] = Preemergence, 125 g ai/ha, scale 0 to 100, 0 is no effect, 100 is complete control
[20] = Preemergence, 250 g ai/ha, scale 0 to 100, 0 no effect, 100 complete control
[21] = postemergence, 62 g ai/ha, scale 0 to 100, 0 no effect, 100 complete control

CCCC(=O)Oc1c(C)nn(C)c(=O)c1-c1c(C)sc2ccc(C)cc12 [Compound 105]
Plant response rating, Barnyardgrass [1, 14]: 10 | Plant response rating, Barnyardgrass [1, 15]: 25 | Plant response rating, Barnyardgrass [1, 16]: 20 | Plant response rating, Barnyardgrass [1, 17]: 0 | Plant response rating, Barnyardgrass [1, 18]: 30 | Plant response rating, Barnyardgrass [1, 19]: 60 | Barnyardgrass plant response rating [1, 20]: 90 | Barnyardgrass plant response rating [1, 21]: 25 | Plant response rating, Blackgrass [2, 14]: 15 | Plant response rating, Blackgrass [2, 15]: 50 | Plant response rating, Blackgrass [2, 16]: 60 | Plant response rating, Blackgrass [2, 17]: 20 | Plant response rating, Blackgrass [2, 18]: 50 | Plant response rating, Blackgrass [2, 19]: 55 | Blackgrass plant response rating [2, 20]: 90 | Blackgrass plant response rating [2, 21]: 40 | Plant response rating, Corn (corn (Zea mays); [14]): 10 | Plant response rating, Corn (corn (Zea mays); [15]): 30 | Plant response rating, Corn (corn (Zea mays); [16]): 30 | Plant response rating, Corn (corn (Zea mays); [17]): 0 | Plant response rating, Corn (corn (Zea mays); [18]): 0 | Plant response rating, Corn (corn (Zea mays); [19]): 5 | Corn plant response rating (corn (Zea mays); [20]): 25 | Corn plant response rating (corn (Zea mays); [21]): 15 | Plant response rating, Crabgrass, Large [3, 14]: 20 | Plant response rating, Crabgrass, Large [3, 15]: 20 | Plant response rating, Crabgrass, Large [3, 16]: 30 | Plant response rating, Crabgrass, Large [3, 17]: 20 | Plant response rating, Crabgrass, Large [3, 18]: 50 | Plant response rating, Crabgrass, Large [3, 19]: 75 | Crabgrass, Large plant response rating [3, 20]: 80 | Crabgrass, Large plant response rating [3, 21]: 30 | Plant response rating, Foxtail, Giant [4, 14]: 40 | Plant response rating, Foxtail, Giant [4, 15]: 75 | Plant response rating, Foxtail, Giant [4, 16]: 85 | Plant response rating, Foxtail, Giant [4, 17]: 60 | Plant response rating, Foxtail, Giant [4, 18]: 80 | Plant response rating, Foxtail, Giant [4, 19]: 90 | Foxtail, Giant plant response rating [4, 20]: 100 | Plant response rating, Galium [5, 14]: 95 | Plant response rating, Galium [5, 15]: 95 | Plant response rating, Galium [5, 16]: 100 | Plant response rating, Galium [5, 17]: 85 | Plant response rating, Galium [5, 18]: 90 | Plant response rating, Galium [5, 19]: 95 | Galium plant response rating [5, 20]: 98 | Plant response rating, Lambsquarters [6, 14]: 85 | Plant response rating, Lambsquarters [6, 15]: 100 | Plant response rating, Lambsquarters [6, 16]: 100 | Plant response rating, Lambsquarters [6, 17]: 95 | Plant response rating, Lambsquarters [6, 18]: 85 | Plant response rating, Lambsquarters [6, 19]: 90 | Lambsquarters plant response rating [6, 20]: 95 | Plant response rating, Nutsedge, Yellow [7, 14]: 55 | Plant response rating, Nutsedge, Yellow [7, 15]: 75 | Plant response rating, Nutsedge, Yellow [7, 16]: 90 | Plant response rating, Nutsedge, Yellow [7, 17]: 40 | Plant response rating, Nutsedge, Yellow [7, 18]: 45 | Plant response rating, Nutsedge, Yellow [7, 19]: 40 | Nutsedge, Yellow plant response rating [7, 20]: 85 | Plant response rating, Oilseed Rape [8, 14]: 5 | Plant response rating, Oilseed Rape [8, 15]: 60 | Plant response rating, Oilseed Rape [8, 16]: 75 | Plant response rating, Oilseed Rape [8, 17]: 0 | Plant response rating, Oilseed Rape [8, 18]: 5 | Plant response rating, Oilseed Rape [8, 19]: 10 | Oilseed Rape plant response rating [8, 20]: 10 | Plant response rating, Pigweed [9, 14]: 85 | Plant response rating, Pigweed [9, 15]: 100 | Plant response rating, Pigweed [9, 16]: 98 | Plant response rating, Pigweed [9, 17]: 98 | Plant response rating, Pigweed [9, 18]: 100 | Plant response rating, Pigweed [9, 19]: 100 | Pigweed plant response rating [9, 20]: 100 | Plant response rating, Ragweed [10, 14]: 90 | Plant response rating, Ragweed [10, 15]: 98 | Plant response rating, Ragweed [10, 16]: 100 | Plant response rating, Ragweed [10, 17]: 90 | Plant response rating, Ragweed [10, 18]: 90 | Plant response rating, Ragweed [10, 19]: 98 | Ragweed plant response rating [10, 20]: 100 | Plant response rating, Ryegrass, Italian [11, 14]: 85 | Plant response rating, Ryegrass, Italian [11, 15]: 90 | Plant response rating, Ryegrass, Italian [11, 16]: 80 | Plant response rating, Ryegrass, Italian [11, 17]: 40 | Plant response rating, Ryegrass, Italian [11, 18]: 90 | Plant response rating, Ryegrass, Italian [11, 19]: 90 | Ryegrass, Italian plant response rating [11, 20]: 95 | Plant response rating, Soybean (soybean (Glycine max); [14]): 5 | Plant response rating, Soybean (soybean (Glycine max); [15]): 10 | Plant response rating, Soybean (soybean (Glycine max); [16]): 40 | Plant response rating, Soybean (soybean (Glycine max); [17]): 0 | Plant response rating, Soybean (soybean (Glycine max); [18]): 0 | Plant response rating, Soybean (soybean (Glycine max); [19]): 0 | Soybean plant response rating (soybean (Glycine max); [20]): 0 | Plant response rating, Velvetleaf [12, 14]: 75 | Plant response rating, Velvetleaf [12, 15]: 90 | Plant response rating, Velvetleaf [12, 16]: 100 | Plant response rating, Velvetleaf [12, 17]: 60 | Plant response rating, Velvetleaf [12, 18]: 85 | Plant response rating, Velvetleaf [12, 19]: 90 | Velvetleaf plant response rating [12, 20]: 95 | Plant response rating, Wheat [13, 14]: 0 | Plant response rating, Wheat [13, 15]: 5 | Plant response rating, Wheat [13, 16]: 5 | Plant response rating, Wheat [13, 17]: 0 | Plant response rating, Wheat [13, 18]: 10 | Plant response rating, Wheat [13, 19]: 10 | Wheat plant response rating [13, 20]: 5
